Experimental data published in patent US9949465B2, “Atopic dermatitis model animal and use thereof” (HYOGO COLLEGE OF MEDICINE, priority 2013, dated 2018).
Where a name gives a salt, the structure may show the parent alone.

Assays:
hK14mIL33tg mice [1] = experiment: Scratching behavior (skin scratching time) in hK14mIL33tg mice; format: in vivo, mouse
Protocol: Skin scratching time (sec/min) in any 20 min of wild-type mice (WT) and hK14mIL33tg mice (Tg) was measured. […] Furthermore, an effect of anti-histamine drugs on the scratching behavior was verified. Diphenhydramine hydrochloride (2 mg) was intraperitoneally administered to hK14mIL33tg mice. As a result, the scratching time of mice observed in 20 min from 6 min after the administration decreased from average 4.6 min to average 0.2 min (FIG. 19).

hK14mIL33tg mice [2] = experiment: Rash score of hK14mIL33tg mice after application to rash site; format: in vivo, mouse
Protocol: Each item can be measured by a known method, or according to the below-mentioned Examples. For example, as for the rash score, 5 items of pruritus, erythematous plaque/bleeding, edema, epidermis detachment/erosion, and desquamation/drying are evaluated and rated as absent (0 point), mild (1 point), moderate (2 points), and severe (3 points), and the total points are used for measurement (Matsuda H et al., Int. Immunol, 9(3):461-466, 1997). As for the number of inflammatory cells, for example, cells derived from skin tissue, peripheral blood or lymph node are analyzed by flow cytometry, and the ratio thereof can be measured. The inflammatory cells include eosinophils, neutrophils, basophils, mast cells, type 2 innate lymphoid cells and the like, preferably eosinophils, mast cells and type 2 innate lymphoid cells. The total IgE concentration, histamine concentration, cytokine concentration and chemokine concentration can be measured by ELISA using each antibody. As used herein, cytokine is preferably IL-5 or IL-13. […]
An effect of steroid drug on scratching behavior of hK14mIL33tg mice was verified. […] As rash scores, 5 items of pruritus, erythematous plaque/bleeding, edema, epidermis detach/erosion, and desquamation/drying were evaluated into absent (0 point), mild (1 point), moderate (2 points), and severe (3 points) (Matsuda H et al., Int. Immunol, 9(3):461-466, 1997). […]

| Structure (SMILES) | scratching time after administration (hK14mIL33tg mice [1]; 2 mg intraperitoneally, observed in 20 min from 6 min after the administration, average, n=3, before administration average 4.6 min) | scratching time (result in words) (hK14mIL33tg mice [1]; hK14mIL33tg (Tg) mice, increased scratching time vs wild-type) | total points of rash score after application (hK14mIL33tg mice [2]; applied to rash site 5 times every 2 days, average, n=4, before application average 12.3 points, 5 items scored 0-3) | rash score (result in words) (hK14mIL33tg mice [2]; hK14mIL33tg (Tg) mice) |
| --- | --- | --- | --- | --- |
| CN(C)CCOC(c1ccccc1)c1ccccc1 [Diphenhydramine hydrochloride] | 0.2 min | could reduce |  |  |
| CCCC(=O)O[C@]1(C(=O)COC(=O)CC)[C@@H](C)C[C@H]2[C@@H]3CCC4=CC(=O)C=C[C@]4(C)[C@@]3(F)[C@@H](O)C[C@@]21C [betamethasone butyrate propionate] |  |  | 4.8 points | could reduce |
